Results as given in US9603844B2, “Compositions and methods for treating mammary tumors” (GEORGETOWN UNIVERSITY, priority 2012, dated 2017).

Experiments:
BRCA1 protein levels = experiment: siRNA efficacy validation by Western blotting; type: cell-based; conditions: minimum 48 hr exposure to 100 nM siRNA
Experimental: (catalog number: 43924220, Ambion/Life Technologies; and negative control-siRNA (catalog number: AM4461, Ambion). The efficacy of the ER-siRNA was validated by Western blotting. For siRNA treatments, subconfluent cells were treated with ER-specific or control siRNAs (final concentration of 100 nM) using siPORT Amine transfection reagent (Ambion), according to the manufacturer's instructions.

[1] = tested on: progesterone receptor (PR) activity in T47D cells; experiment: MMTV-Luc reporter assay for PR activity in T47D cells; type: cell-based, human; conditions: R5020 10 nM
Experimental: FIG. 10 depicts that the inhibition of ER activity by these six compounds is not to due to non-specific cytotoxicity, since cell viability remained over 80% after a 24-hr exposure to 1 μM of each of the compounds (A). One of the compounds was tested for its ability to inhibit progestin-stimulated progesterone receptor (PR) activity in a PR+ human breast cancer cell line (T47D), using the MMTV-Luc reporter as a readout for PR activity (B). Here, PR activity was stimulated over 20-fold by the synthetic progestin R5020 (10 nM), but compound 4631-P/1 had no effect on PR activity at either 1 μM or 20 μM.
Progesterone receptor (PR) transcriptional activity assays were carried out in T47D cells using the synthetic progestin R5020 (10 nM) to activate PR and the MMTV-Luc reporter as a readout for PR activity.
Subconfluent proliferating MCF-7 cells were treated with vehicle (DMSO) or with the a sensitizing compound for 24 hours and then assayed for cell viability using MTT dye reduction assays. […] Subconfluent proliferating T47D cells were also transfected overnight with a progesterone-responsive reporter (MMTV-Luc) and then exposed to a synthetic progestin (R5020, 10 nM) for 24 hours in the absence or presence of compound 4631 P/1, as indicated.

[2] = tested on: cathepsin D (E2/ER-regulated gene) in MCF-7 cells; experiment: cathepsin D protein expression in MCF-7 cells; type: cell-based, human; conditions: 24-hr exposure to E2 (10 nM)
Experimental: FIG. 7 depicts the ability of compounds 4631-P/1 and 35466-L/1 to inhibit the expression of an ER-regulated gene. Cathepsin D was used as a prototype E2/ER-regulated gene.
For Western blotting, after the indicated treatment(s), cells were harvested, and whole-cell lysates were prepared using RIPA buffer (Santa Cruz). Equal aliquots of whole-cell protein (either 100 μg unprecipitated whole-cell lysate or one half of the precipitated protein from 500 μg whole-cell lysate) were electrophoresed on 4-12% SDS-polyacrylamide gradient gels, transferred to nitrocellulose membranes (Millipore, Bedford, Mass.), and blotted using primary antibodies directed against BRCA1 (C-20, rabbit polyclonal, 1:200 dilution; Santa Cruz), ER (F10, mouse monoclonal, sc-8002, 1:500; Santa Cruz), and actin (goat polyclonal, catalog item sc-1615, 1:400; Santa Cruz). The membranes were then blotted with the appropriate secondary antibodies (1:1000; Santa Cruz), and the blotted proteins were visualized using an electrochemiluminescence (ECL) detection system (Amersham Biosciences), with colored markers (Bio-Rad Laboratories, Hercules, Calif.) as molecular size standards.

[3] = tested on: ER activity in LCC9 cells; experiment: ERE-TK-Luc reporter assay in LCC9 cells; type: cell-based, human; conditions: Tam 5 μM, wtBRCA1 expression vector transfected
Experimental: FIG. 3 depicts the inhibition of ER activity in anti-estrogen resistant LCC9 cells. LCC9 cells in 24-well dishes were transfected overnight with the ERE-TK-Luc reporter plasmid (0.25 μg per well), washed, and allowed to recover for several hours in fresh culture medium. The cells were then treated with the indicated concentrations of the six bioactive compounds or vehicle only (DMSO) for 24 hr and assayed for luciferase activity. Luciferase activity is expressed as a percentage of the DMSO control. Values are means±SEMs of four replicate wells.
FIG. 8 depicts BRCA1 over-expression partially restores Tamoxifen sensitivity to anti-estrogen-resistant LCC9 cells. The effect of BRCA1 over-expression (by transfection of a wild-type (wt) full-length BRCA1 expression vector) was studied in E2-insensitive anti-estrogen resistant LCC9 human breast cancer cells with E2-sensitive/anti-estrogen sensitive MCF-7 breast cancer cells. The wtBRCA1 suppressed the constitutive ER activity (measured using the ERE-TK-Luc reporter as a readout), but Tam (5 μM) by itself had no effect on ER activity (A and B (left)). […] When MCF-7 cells were tested in the absence of E2, ER activity was very low under most conditions (illustrating the requirement for E2 to activate ER), but in the absence of E2, Tam functioned as an ER agonist and caused about a (5-6)-fold increase in ER activity (P<0.001). […]

[4] = tested on: ER activity in MCF-7 cells; experiment: ERE-TK-Luc reporter assay in MCF-7 cells; type: cell-based, human
Source text: FIG. 8 depicts BRCA1 over-expression partially restores Tamoxifen sensitivity to anti-estrogen-resistant LCC9 cells. The effect of BRCA1 over-expression (by transfection of a wild-type (wt) full-length BRCA1 expression vector) was studied in E2-insensitive anti-estrogen resistant LCC9 human breast cancer cells with E2-sensitive/anti-estrogen sensitive MCF-7 breast cancer cells. The wtBRCA1 suppressed the constitutive ER activity (measured using the ERE-TK-Luc reporter as a readout), but Tam (5 μM) by itself had no effect on ER activity (A and B (left)). […] When MCF-7 cells were tested in the absence of E2, ER activity was very low under most conditions (illustrating the requirement for E2 to activate ER), but in the absence of E2, Tam functioned as an ER agonist and caused about a (5-6)-fold increase in ER activity (P<0.001).
FIG. 9 depicts the inhibition of E2-stimulated ER activity in MCF-7 cells by six compounds.
Subconfluent cells in 24-well dishes were transfected overnight with 0.25 μg of each indicated vector plus the ERE-TK-Luc reporter in serum-free DMEM containing Lipofectamine2000 (Life Technologies). The total transfected DNA was kept constant by addition of the appropriate control vector. […]

## ER-siRNA: ER-α small interfering RNA, Ambion catalog number 43924220 (sense CAGGCACAUGAGUAACAAATT; antisense UUUGUUACUCAUGUGCCUGAT; chemistry not given here)
BRCA1 protein levels
  reduction of the BRCA1 protein levels: > 75%

## CCC(=O)[C@@]1(C)CC[C@H]2[C@@H]3CCC4=CC(=O)CCC4=C3CC[C@@]21C [R5020]
[1]
  stimulation of PR activity: over 20 fold

## C[C@]12CC[C@@H]3c4ccc(O)cc4CC[C@H]3[C@@H]1CC[C@@H]2O [E2, 17β-estradiol]
[2]
  cathepsin D protein levels after E2: increased significantly

## CC/C(=C(\c1ccccc1)c1ccc(OCCN(C)C)cc1)c1ccccc1 [Tam, Tamoxifen]
[3]
  constitutive ER activity in LCC9 cells (ERE-TK-Luc): no effect
[4]; absence of E2, P<0.001
  increase in ER activity in the absence of E2: 5-6 fold
[4]; with E2
  E2-stimulated ER activity in MCF-7 cells (ERE-TK-Luc): strongly suppressed
